Reference: article PMC9772221 (Archives of biochemistry and biophysics, 2022)
Like-named read-outs stand apart in the source and are kept apart here. Values belong to the compound of their own block, whether it stands above or below them.

Assays:
PYCR3 [1] = target: T1, PYCR3 (Homo sapiens, UniProt Q53H96); experiment: Steady-state; format: biochemical; settings: pH 7.5, 26°C
T1 sequence (Q53H96 11-274): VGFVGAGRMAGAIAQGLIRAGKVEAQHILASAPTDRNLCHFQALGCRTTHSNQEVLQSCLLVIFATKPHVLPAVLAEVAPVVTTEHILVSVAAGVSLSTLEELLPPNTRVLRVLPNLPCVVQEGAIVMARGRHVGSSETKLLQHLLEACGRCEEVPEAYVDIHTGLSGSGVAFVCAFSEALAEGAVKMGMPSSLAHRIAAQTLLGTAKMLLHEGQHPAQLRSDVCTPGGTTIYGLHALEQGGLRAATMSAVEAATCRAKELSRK

PYCR3 [2] = target: T1, PYCR3; experiment: Competitive; format: biochemical; settings: pH 7.5, 26°C, NADH fixed at 175 μM
PYCR3 [3] = settings: read-out: Ki of L-proline against PYCR3, previous estimate; cited from earlier work
PYCR3 [4] = target: T1, PYCR3; experiment: Bi-substrate kinetic analysis of PYCR3, global fitting to bi bi models; format: biochemical; settings: read-out: K^P5C, L-P5C on abscissa, L-P5C binds first, pH 7.5, 26°C
PYCR1 [5] = settings: PYCR1, variable L-P5C, NADH = 175 μM; cited from earlier work
PYCR1 [6] = settings: read-out: Ki against PYCR1; cited from earlier work
PYCR3 [7] = target: T1, PYCR3; experiment: Single-point inhibition screen of proline analogs against PYCR3; format: biochemical; settings: proline analog 5 mM, L-P5C 200 μM, NADH 175 μM
[8] = PYCR3, variable coenzyme, L-P5C = 400 μM
[9] = PYCR3, variable L-P5C, NADH = 175 μM
[10] = PYCR3, variable L-P5C, NADPH = 175 μM

Km (PYCR3 [1]; [8]): 192 ± 8 µM | kcat (PYCR3 [1]; [8]): 235 ± 5 s⁻¹
Compound: NC(=O)C1=CN([C@@H]2O[C@H](COP(=O)(O)OP(=O)(O)OC[C@H]3O[C@@H](n4cnc5c(N)ncnc54)[C@H](O)[C@@H]3O)[C@@H](O)[C@H]2O)C=CC1 [NADH]

Km (PYCR3 [1]; [8]): 45 ± 3 µM | kcat (PYCR3 [1]; [8]): 70 ± 2 s⁻¹
Compound: NC(=O)C1=CN([C@@H]2O[C@H](COP(=O)(O)OP(=O)(O)OC[C@H]3O[C@@H](n4cnc5c(N)ncnc54)[C@H](OP(=O)(O)O)[C@@H]3O)[C@@H](O)[C@H]2O)C=CC1 [NADPH]

Compound: O=C(O)[C@@H]1CCCN1 [Compound 17, L-proline]
Ki (PYCR3 [2]; Ki, apparent competitive (with L-P5C) inhibition constant): 5700 ± 600 µM | Ki (PYCR3 [3]): ~8000 µM

Compound: O=C(O)C1CCC=N1 [L-P5C, Δ^1-pyrroline-5-carboxylate]
Kd (PYCR3 [4]; equilibrium compulsory ordered bi bi (Equation 2)): 1500 ± 700 µM | Kd (PYCR3 [4]; steady-state compulsory ordered bi bi (Equation 3)): 110 ± 70 µM | Km (PYCR3 [1]; [9]): 315 ± 65 µM | kcat (PYCR3 [1]; [9]): 146 ± 17 s⁻¹ | Km (PYCR3 [1]; [10]): 64 ± 48 µM | kcat (PYCR3 [1]; [10]): 48 ± 11 s⁻¹ | Km (PYCR1 [5]): 260 ± 63 µM | kcat (PYCR1 [5]): 51 ± 13 s⁻¹

Compound: O=CN1CCC[C@H]1C(=O)O [Compound 2, N-formyl-L-proline]
Ki (PYCR3 [2]; read-out: Ki, apparent competitive (with L-P5C) inhibition constant): 1200 ± 100 µM | Ki (PYCR1 [6]): 100 µM | catalytic activity compared to the control assay with no inhibitor (PYCR3 [7]): ≤ 50%
